Test results taken from US10233186B2, “Inhibitors of activin receptor-like kinase” (BLUEPRINT MEDICINES CORPORATION, priority 2016, dated 2019).

Assays:
[1] = molecular target: T1, ALK2 R206H (GST-tagged mutant ALK2) (Homo sapiens, UniProt Q04771, R206H); assay: ALK binding assay (LANTHASCREEN TR-FRET competitive binding, displacement of Kinase Tracer 178); settings: ALK2 R206H, LANTHASCREEN TR-FRET competitive binding; read-out: Binding Assay (IC50)
T1 construct: purchased Carna Bioscience or ThermoFisher 09-148 or PV6232
T1 sequence (Q04771 21-509 R206H): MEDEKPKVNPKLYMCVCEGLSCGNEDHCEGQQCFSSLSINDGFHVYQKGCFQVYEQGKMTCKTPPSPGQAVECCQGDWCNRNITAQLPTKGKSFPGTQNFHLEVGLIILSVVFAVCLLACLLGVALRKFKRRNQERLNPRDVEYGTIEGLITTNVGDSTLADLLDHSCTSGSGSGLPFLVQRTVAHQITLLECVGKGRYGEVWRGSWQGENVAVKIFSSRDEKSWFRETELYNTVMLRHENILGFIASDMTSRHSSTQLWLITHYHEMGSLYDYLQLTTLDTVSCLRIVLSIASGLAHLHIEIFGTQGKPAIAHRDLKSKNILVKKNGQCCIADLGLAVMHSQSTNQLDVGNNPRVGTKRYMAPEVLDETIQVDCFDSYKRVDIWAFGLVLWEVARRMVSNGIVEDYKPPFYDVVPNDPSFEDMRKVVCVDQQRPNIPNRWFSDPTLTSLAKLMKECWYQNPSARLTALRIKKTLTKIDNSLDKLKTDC

human ALK2 R206H = molecular target: T2, human ALK2 R206H (Homo sapiens, UniProt Q04771, R206H); assay: Cell-based ALK2-R206H cell activity assay (Smad1-Ser463/Ser465 phosphorylation by AlphaLISA in HEK293-ALK2-R206H cells); settings: read-out: Cell Line (Cell Assay IC50)
T2 construct: expressed in transfected cells; host or cells: HEK293 (ATCC CRL1573), lentivirus transduction, blasticidin selection
T2 sequence (Q04771 21-509 R206H): T1 sequence (Q04771 21-509 R206H)
Outline: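 Stable HEK293 cells expressing C-terminally FLAG-tagged human ALK2 R206H (lentiviral, blasticidin-selected) were treated with compounds in 10-point, 3-fold dilutions from 10 μM or 1 μM top, in duplicate. Smad1 Ser463/Ser465 phosphorylation was read by AlphaLISA.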

SMILES | IC50 [1] [nM] | IC50 (human ALK2 R206H) [nM]
CCOC1(c2ccc(-c3cc4c(N5CCN(C(=O)[C@H]6C[C@H](C#N)C6)CC5)ccnn4c3)nc2)CCN(C2COC2)CC1 [Compound 890] | < 10 | < 100
CC(C)N1CCC(COC(F)F)(c2ccc(-c3cc4c(N5CCN(C(=O)OC6COC6)CC5)ccnn4c3)cc2)CC1 [Compound 891] | < 10 | < 100
COC1(c2ccc(-c3cc4c(N5CCN(C(=O)NC(C)C)CC5)ccnn4c3)cc2)CCN([C@@H](C)COC(F)F)CC1 [Compound 892] | < 10 | < 100
COC1(c2ccc(-c3cc4c(N5CCN(C(=O)NC(C)C)CC5)ccnn4c3)cc2)CCN([C@H](C)COC(F)F)CC1 [Compound 893] | < 10 | < 100
COC1(c2ccc(-c3cc4c(N5CCN(C(=O)NC(C)C)CC5)ccnn4c3)nc2)CCN([C@@H](C)COC(F)F)CC1 [Compound 894] | < 10 | < 100
CCOC1(c2ccc(-c3cc4c(N5CCN(C(=O)OC6CN(C(C)=O)C6)CC5)ccnn4c3)nc2)CCN(C(C)C)CC1 [Compound 895] | < 10 | 100 to 500
COC1(c2ccc(-c3cc4c(N5CCN(C(=O)OC6COC6)CC5)ccnn4c3)cc2)CCN([C@@H](C)COC(F)F)CC1 [Compound 896] | < 10 | < 100
COC1(c2ccc(-c3cc4c(N5CCN(C(=O)OC6COC6)CC5)ccnn4c3)cc2)CCN([C@H](C)COC(F)F)CC1 [Compound 897] | < 10 | < 100
COC1(c2ccc(-c3cc4c(N5CCN(C(=O)OC6COC6)CC5)ccnn4c3)nc2)CCN([C@H](C)COC(F)F)CC1 [Compound 898] | < 10 | < 100
COC1(c2ccc(-c3cc4c(N5CCN(C(=O)OC6COC6)CC5)ccnn4c3)nc2)CCN([C@@H](C)COC(F)F)CC1 [Compound 899] | < 10 | < 100
